This note sets out measurements from PubChem BioAssay (NCI).

Among the test systems are SF-295 CNS; MDA-MB-435; MALME-3M melanoma; TK-10 renal; BT-549 breast; OVCAR-4 ovarian; OVCAR-5 ovarian; SNB-19 CNS; NCI-H23 lung; SN12C renal; PC-3 prostate; SK-MEL-28 melanoma; NCI/ADR-RES ovarian; EKVX NSCLC; HT29 colon; HCC-2998 colon; OVCAR-3 ovarian; RXF 393 renal; T-47D breast.
Common to all, as to experiment: DTP human tumour cell line panel, 48 h

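Interpolation was linear, between the two tested concentrations surrounding the appropriate level; five concentrations were tested over 48 hours in 96-well plates. At the TGI there is no net growth.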 A value given as a limit tells only on which side of the number the result lay.

Regarding `CC(=O)Oc1cc2c(n(C)c1=O)CCC2`, the TGI in the test on SF-295 CNS, in the test with MDA-MB-435, in the test on MALME-3M melanoma, with TK-10 renal, in the test with BT-549 breast and with OVCAR-4 ovarian was over 100 µM in each case. Besides, the TGI with OVCAR-5 ovarian, in the test with SNB-19 CNS, in the test on NCI-H23 lung, with SN12C renal, with PC-3 prostate and in the test on SK-MEL-28 melanoma was over 100 µM throughout. The TGI in the test on NCI/ADR-RES ovarian, in the test with EKVX NSCLC, in the test with HT29 colon and in the test on HCC-2998 colon was over 100 µM each time.
With `NC(=O)N=Nc1c2ccccc2n2[nH]ccc12`, the TGI in the test on SF-295 CNS, in the test with OVCAR-3 ovarian, in the test with MDA-MB-435, with MALME-3M melanoma, in the test on TK-10 renal and in the test with OVCAR-4 ovarian was over 100 µM in each case. Also, the total growth inhibition concentration (TGI) in the test on OVCAR-5 ovarian is over 100 µM; in the test on SNB-19 CNS, over 100 µM; in the test on NCI-H23 lung, over 100 µM; with SN12C renal, over 100 µM; in the test on PC-3 prostate it was over 100 µM; in the test with RXF 393 renal it was 59.4 µM. Also, the TGI in the test on SK-MEL-28 melanoma is over 100 µM; with NCI/ADR-RES ovarian, over 100 µM; in the test with T-47D breast it was 92.9 µM; in the test on EKVX NSCLC it was over 100 µM; in the test with HT29 colon, over 100 µM; in the test on HCC-2998 colon, over 100 µM.
As for `CCCCn1c2c(n(CCCC)c1=[Se])-c1c(n(CCCC)c(=[Se])n1CCCC)S[Se][Se]S2`, the TGI in the test with SF-295 CNS was 30.9 µM; in the test with OVCAR-3 ovarian, 25 µM; with MDA-MB-435 it was over 100 µM; with MALME-3M melanoma it was 15.4 µM; in the test with TK-10 renal, 43.3 µM; with BT-549 breast, over 92.5 µM. Moreover, the TGI in the test on OVCAR-4 ovarian is 25.8 µM; in the test on OVCAR-5 ovarian, 47.6 µM; with SNB-19 CNS it was over 65.2 µM; in the test with NCI-H23 lung it was 70.4 µM; in the test with SN12C renal, 65 µM; in the test on PC-3 prostate it was 34.7 µM. In addition, the TGI in the test with RXF 393 renal was over 71.4 µM; in the test on SK-MEL-28 melanoma it was over 100 µM; with NCI/ADR-RES ovarian it was 39.5 µM; with EKVX NSCLC, over 100 µM; in the test with HT29 colon it was over 64.6 µM; in the test with HCC-2998 colon it was over 100 µM.
Consider `O=Cc1ccc2[nH]c(=O)oc2c1`, for which the TGI in the test on SF-295 CNS, with OVCAR-3 ovarian, in the test with MDA-MB-435, in the test with MALME-3M melanoma, in the test with TK-10 renal and in the test on BT-549 breast was over 100 µM in each case. The total growth inhibition concentration (TGI) with OVCAR-5 ovarian, with SNB-19 CNS, in the test with NCI-H23 lung, in the test with SN12C renal, with PC-3 prostate and in the test with RXF 393 renal was over 100 µM throughout. Moreover, the TGI in the test with SK-MEL-28 melanoma, with NCI/ADR-RES ovarian, with EKVX NSCLC and in the test on HT29 colon was over 100 µM each time.
Turning to `O[C@H]1[C@@H]2OC[C@@H](O)[C@H](OCc3ccccc3)[C@@](COCc3ccccc3)(O2)[C@@H]1OCc1ccccc1`, the TGI in the test with SF-295 CNS came out at 26.1 µM; in the test on OVCAR-3 ovarian it was 19.4 µM; in the test with MDA-MB-435, 32.1 µM; in the test on MALME-3M melanoma it was 28.6 µM; with TK-10 renal, 32.5 µM; in the test on BT-549 breast, 32.2 µM. Also, the TGI in the test on OVCAR-4 ovarian stood at 24.4 µM; with OVCAR-5 ovarian, 30 µM; in the test on SNB-19 CNS, 30 µM; with NCI-H23 lung it was 32.3 µM; in the test on SN12C renal, 27.9 µM; in the test on PC-3 prostate it was 28.3 µM. For the same compound, the TGI with RXF 393 renal came to 39.8 µM; in the test on SK-MEL-28 melanoma, 27.3 µM; with NCI/ADR-RES ovarian, 32 µM; with EKVX NSCLC, 30.3 µM; in the test on HT29 colon, 28.7 µM.
In the case of `Cc1cccc(/C=C2\CCCCCC2=O)c1`, the TGI in the test on SF-295 CNS, in the test with OVCAR-3 ovarian, with MDA-MB-435, with MALME-3M melanoma, in the test with TK-10 renal and in the test with BT-549 breast was over 100 µM in each case. For the same compound, the concentration for total growth inhibition (TGI) in the test on OVCAR-4 ovarian, with OVCAR-5 ovarian, in the test on SNB-19 CNS, in the test on NCI-H23 lung, in the test with SN12C renal and in the test on PC-3 prostate was over 100 µM in each case. In addition, the TGI in the test on SK-MEL-28 melanoma, in the test on T-47D breast, in the test with EKVX NSCLC, in the test on HT29 colon and in the test on HCC-2998 colon was over 100 µM each time.
As for `C/C(CC(O)(C(F)(F)F)C(F)(F)F)=N/Nc1ccc([N+](=O)[O-])cc1[N+](=O)[O-]`, the TGI in the test with SF-295 CNS was over 10 µM; in the test on OVCAR-3 ovarian, 8.33 µM; in the test on MDA-MB-435 it was over 10 µM; with MALME-3M melanoma, over 10 µM; in the test with TK-10 renal, over 10 µM; in the test on OVCAR-4 ovarian, over 10 µM. Besides, the TGI in the test on SNB-19 CNS is over 10 µM; in the test on NCI-H23 lung it was 7.27 µM; in the test on SN12C renal, over 10 µM; in the test with PC-3 prostate, over 10 µM; with RXF 393 renal, 7.53 µM; in the test with SK-MEL-28 melanoma, over 10 µM. Besides, the TGI in the test with NCI/ADR-RES ovarian is over 10 µM; with T-47D breast it was 8.37 µM; with EKVX NSCLC, over 10 µM; in the test with HT29 colon, over 10 µM; with HCC-2998 colon, over 10 µM.
For the compound `Cc1ccc(S(=O)(=O)N/N=C2\CC3C4CCC3C2C4)cc1` (configuration not stated), the TGI in the test on SF-295 CNS, in the test on OVCAR-3 ovarian, in the test with MDA-MB-435, in the test on MALME-3M melanoma, in the test on TK-10 renal and in the test on OVCAR-4 ovarian was over 100 µM throughout. Moreover, the TGI in the test with OVCAR-5 ovarian, with SNB-19 CNS, with NCI-H23 lung, with SN12C renal, in the test on PC-3 prostate and in the test with RXF 393 renal was over 100 µM each time. Besides, the TGI in the test on SK-MEL-28 melanoma, with NCI/ADR-RES ovarian, in the test on T-47D breast, with EKVX NSCLC, with HT29 colon and in the test with HCC-2998 colon was over 100 µM in each case.

Broadly, the TGI is the concentration giving total growth inhibition.
